The results in this text go back to paper PMC6018403 (Frontiers in Pharmacology, 2018).

Read-outs that look alike come from different tables or passages of the source.

A short description of series [1]: Multi-component pharmacokinetic study of GQD, GQD-GC and single herb extracts in rats (plasma, LC/MS/MS). In kind it is in vivo, Sprague-Dawley rats. The essentials: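 Male Sprague-Dawley rats (220–250 g, n = 10 per group) dosed orally with GQD, GQD-GC (1.0 g crude drug/mL) or single-herb decoctions. Plasma analytes quantified by LC/MS/MS in positive-ESI SRM mode. Cmax and Tmax taken from measured data, other parameters by non-compartmental or compartmental analysis; mean ± SD.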

The next series addresses T1, P-glycoprotein (P-gp) (Homo sapiens, UniProt P08183).
T1 construct: host or cells: Caco-2 (human colon adenocarcinoma) monolayers, passages 24-35
Briefly: P-gp inhibitor and inducer experiments on Caco-2 cell monolayer. As to conditions: added together with BER 5 μM; verapamil 5 μM; rifampicin 5, 20, 50 μM. The format is in vitro ADME. The method, then: The final concentration of GQD, GQD−GC, and Huang-Lian water extracts were 32, 28, and 6 μg/mL, respectively. […]
containing glucose (25 mM) and HEPES (10 mM). The final concentration of berberine was 5 µM. The final concentration of DMSO was below 1% (v/v). […]
inducer of Caco-2 cells, respectively. For the inhibitor experiments, the Caco-2 cells were cultivated in DMEM until the 21st day. After removal of the medium, the cells were incubated for 30 minutes with HBSS containing 5 µM of verapamil. For the inducer experiments, the cells were cultivated in DMEM until the 18th day, and then […]
was removed on the 21st day, and the cells were then incubated for 30 min with HBSS.
Berberine and glycyrrhizic acid were added to the system following HBSS incubation.
For all bidirectional transport assays, samples (300 µL) were collected after 30, 60, 90, […]
with an equal volume of HBSS. The samples were freeze-dried and then dissolved in 300 µL of methanol. The solutions were filtered through 0.22-µm membranes before […]
3. Inhibitor and inducer experiments […]
respectively. For the inhibition experiments, Caco-2 cells were cultivated in DMEM until the 21st day. After removal of the medium, the cells were incubated for 30 minutes with HBSS containing verapamil (5 µM). For induction experiments, the cells were cultivated in DMEM until the 18th day, and then cultivated in DMEM […]
The medium was removed on the 21st day, and the cells were then incubated for 30 min with HBSS. Berberine and glycyrrhizic acid were added to the system following HBSS incubation.

Setting [2] is: male, Sprague-Dawley, rat, in vivo, po, 2.36 g/kg.
[3] abbreviates: male, Sprague-Dawley, rat, in vivo, po, 18.9 g/kg.
[4] abbreviates: male, Sprague-Dawley, rat, plasma, po, 16.5 g/kg, GQD-GC group (GQD without Gan-Cao): rats, oral 16.5 g/kg, plasma, read-out: AUClast.
[5] abbreviates: male, Sprague-Dawley, rat, plasma, po, 18.9 g/kg, GQD group: rats, oral GQD extract 18.9 g/kg, plasma, read-out: AUClast.
The mark [6] stands for this setting: male, Sprague-Dawley, rat, plasma, po, 18.9 g/kg, GQD group: rats, oral GQD 18.9 g/kg (1.5-fold of clinical dosage), plasma, read-out: AUClast.
The mark [7] stands for this setting: male, Sprague-Dawley, rat, GQD group: rats, oral GQD extract 18.9 g/kg, plasma, read-out: Cmax.
Where [8] appears, read: male, Sprague-Dawley, rat, GQD group: rats, oral GQD extract 18.9 g/kg, plasma, read-out: T1/2 (converted).
Setting [9] is: male, Sprague-Dawley, rat, GQD group: rats, oral GQD extract 18.9 g/kg, plasma, read-out: Tmax.
Where [10] appears, read: male, Sprague-Dawley, rat, GQD-GC group (GQD without Gan-Cao): rats, oral 16.5 g/kg, plasma, read-out: Cmax.
Where [11] appears, read: male, Sprague-Dawley, rat, GQD-GC group (GQD without Gan-Cao): rats, oral 16.5 g/kg, plasma, read-out: T1/2 (converted).
Where [12] appears, read: male, Sprague-Dawley, rat, GQD-GC group (GQD without Gan-Cao): rats, oral 16.5 g/kg, plasma, read-out: Tmax.
[13] abbreviates: male, Sprague-Dawley, rat, plasma, po, 9.45 g/kg, GG (Ge-Gen) group: rats, oral extract 9.45 g/kg, plasma, read-out: AUClast.
Where [14] appears, read: male, Sprague-Dawley, rat, GG (Ge-Gen) group: rats, oral extract 9.45 g/kg, plasma, read-out: Cmax.
Setting [15] is: male, Sprague-Dawley, rat, GG (Ge-Gen) group: rats, oral extract 9.45 g/kg, plasma, read-out: T1/2 (converted).
Setting [16] is: male, Sprague-Dawley, rat, GG (Ge-Gen) group: rats, oral extract 9.45 g/kg, plasma, read-out: Tmax.

T1 sequence (P08183 whole entry): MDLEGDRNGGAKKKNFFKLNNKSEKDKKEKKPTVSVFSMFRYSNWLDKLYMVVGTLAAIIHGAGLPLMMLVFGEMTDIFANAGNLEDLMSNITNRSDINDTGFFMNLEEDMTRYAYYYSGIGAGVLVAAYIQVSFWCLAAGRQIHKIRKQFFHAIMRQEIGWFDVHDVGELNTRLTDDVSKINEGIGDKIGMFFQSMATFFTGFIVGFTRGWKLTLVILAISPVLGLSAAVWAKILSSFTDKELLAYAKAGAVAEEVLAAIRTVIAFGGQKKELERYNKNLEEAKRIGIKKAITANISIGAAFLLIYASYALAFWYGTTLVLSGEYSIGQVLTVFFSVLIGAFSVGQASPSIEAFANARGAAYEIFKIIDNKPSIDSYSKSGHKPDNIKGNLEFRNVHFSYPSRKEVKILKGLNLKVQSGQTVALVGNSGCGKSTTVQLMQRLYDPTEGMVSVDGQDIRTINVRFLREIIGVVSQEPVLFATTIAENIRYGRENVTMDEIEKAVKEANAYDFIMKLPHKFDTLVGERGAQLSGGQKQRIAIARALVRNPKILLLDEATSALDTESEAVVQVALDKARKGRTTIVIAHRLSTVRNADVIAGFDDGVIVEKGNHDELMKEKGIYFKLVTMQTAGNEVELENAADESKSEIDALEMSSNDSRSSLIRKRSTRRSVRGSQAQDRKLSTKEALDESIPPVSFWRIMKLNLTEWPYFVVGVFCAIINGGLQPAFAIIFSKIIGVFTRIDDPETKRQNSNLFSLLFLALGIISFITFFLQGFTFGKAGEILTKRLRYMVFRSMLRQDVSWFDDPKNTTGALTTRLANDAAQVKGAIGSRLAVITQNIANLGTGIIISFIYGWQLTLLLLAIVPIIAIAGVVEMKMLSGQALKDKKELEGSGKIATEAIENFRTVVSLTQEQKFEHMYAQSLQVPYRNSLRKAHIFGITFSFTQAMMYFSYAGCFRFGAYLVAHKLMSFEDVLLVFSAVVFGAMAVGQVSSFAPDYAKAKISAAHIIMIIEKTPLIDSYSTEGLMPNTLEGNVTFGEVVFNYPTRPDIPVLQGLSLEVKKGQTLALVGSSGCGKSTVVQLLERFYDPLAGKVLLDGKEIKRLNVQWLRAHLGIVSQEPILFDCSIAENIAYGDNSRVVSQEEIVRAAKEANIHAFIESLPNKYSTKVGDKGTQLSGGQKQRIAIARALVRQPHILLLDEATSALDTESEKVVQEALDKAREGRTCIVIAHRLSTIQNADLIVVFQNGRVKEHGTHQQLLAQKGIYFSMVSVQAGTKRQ

For the compound `CC1(C(=O)O)CCC2(C)CCC3(C)C(=CC(=O)C4C5(C)CCC(OC6OC(C(=O)O)C(O)C(O)C6OC6OC(C(=O)O)C(O)C(O)C6O)C(C)(CO)C5CCC43C)C2C1` (centres unmarked) [Compound 35, licorice saponin G2], in series [1] (setting [2]), the peak concentration (Cmax) worked out at 8.98 ± 2.49 ng/mL, the Tmax was 3.7 ± 1.41 h and the half-life was 2.3 ± 6.79 h. In series [1] (male, Sprague-Dawley, rat, in vivo, po, 2.36 g/kg, AUClast), this compound had an AUC(0-t) of 81 ± 27.7 ng·h/mL. Moreover, in series [1] (setting [3]), the Cmax amounted to 10.3 ± 6.38 ng/mL, the Tmax came out at 3.89 ± 1.41 h and the half-life is 2.53 ± 0.14 h. In series [1] (male, Sprague-Dawley, rat, in vivo, po, 18.9 g/kg, AUClast), the AUC(0-t) turned out to be 102 ± 53.3 ng·h/mL.
For the compound `COc1cc(-c2coc3c(C4OC(COC5OCC(O)(CO)C5O)C(O)C(O)C4O)c(O)ccc3c2=O)ccc1O` (centres unmarked) [Compound 37, 3'-methoxymirificin], the AUC(0-t) in series [1] (male, Sprague-Dawley, rat, in vivo, po, 9.45 g/kg, GG (Ge-Gen) group: rats, oral extract 9.45 g/kg, plasma, read-out: AUClast) is 47.4 ± 28.7 ng·h/mL; in series [1] (male, Sprague-Dawley, rat, in vivo, po, 16.5 g/kg, GQD-GC group (GQD without Gan-Cao): rats, oral 16.5 g/kg, plasma, read-out: AUClast), 42.5 ± 11.3 ng·h/mL; in series [1] (male, Sprague-Dawley, rat, in vivo, po, 18.9 g/kg, GQD group: rats, oral GQD extract 18.9 g/kg, plasma, read-out: AUClast) it was 86.3 ± 23.9 ng·h/mL. The Cmax in series [1] (male, Sprague-Dawley, rat, in vivo, GG (Ge-Gen) group: rats, oral extract 9.45 g/kg, plasma, read-out: Cmax) was determined as 11.6 ± 0.56 ng/mL; in series [1] (male, Sprague-Dawley, rat, in vivo, GQD group: rats, oral GQD extract 18.9 g/kg, plasma, read-out: Cmax), 9.94 ± 3.68 ng/mL; in series [1] (male, Sprague-Dawley, rat, in vivo, GQD-GC group (GQD without Gan-Cao): rats, oral 16.5 g/kg, plasma, read-out: Cmax) it was 7.22 ± 3.27 ng/mL. Also, the half-life in series [1] (male, Sprague-Dawley, rat, in vivo, GG (Ge-Gen) group: rats, oral extract 9.45 g/kg, plasma, read-out: T1/2 (converted)) is 1.37 ± 0.19 h; in series [1] (male, Sprague-Dawley, rat, in vivo, GQD group: rats, oral GQD extract 18.9 g/kg, plasma, read-out: T1/2 (converted)), 1.04 ± 0.04 h; in series [1] (male, Sprague-Dawley, rat, in vivo, GQD-GC group (GQD without Gan-Cao): rats, oral 16.5 g/kg, plasma, read-out: T1/2 (converted)), 1.62 ± 0.39 h. In addition, the Tmax in series [1] (male, Sprague-Dawley, rat, in vivo, GG (Ge-Gen) group: rats, oral extract 9.45 g/kg, plasma, read-out: Tmax) stood at 0.36 ± 0.74 h; in series [1] (male, Sprague-Dawley, rat, in vivo, GQD group: rats, oral GQD extract 18.9 g/kg, plasma, read-out: Tmax) it was 0.36 ± 0.03 h; in series [1] (male, Sprague-Dawley, rat, in vivo, GQD-GC group (GQD without Gan-Cao): rats, oral 16.5 g/kg, plasma, read-out: Tmax), 0.35 ± 0.42 h.
Take `COc1c(O)c(O[C@@H]2O[C@H](C(=O)O)[C@@H](O)[C@H](O)[C@H]2O)cc2oc(-c3ccccc3)cc(=O)c12` [Compound 38, lateriflorein 7-O-glucuronide]: the AUC(0-t) in series [1] (male, Sprague-Dawley, rat, plasma, po, 3.54 g/kg, HQ (Huang-Qin) group: rats, oral extract 3.54 g/kg, plasma, read-out: AUClast) was 1170 ± 342 ng·h/mL; in series [1] (setting [4]), 599 ± 215 ng·h/mL; in series [1] (setting [5]), 700 ± 77 ng·h/mL; in series [1] (setting [6]), more than 700 ng·h/mL. Moreover, the Cmax is 48.8 ± 3.88 ng/mL in series [1] (setting [7]); 59.4 ± 5.34 ng/mL in series [1] (setting [10]); 213 ± 34.3 ng/mL in series [1] (male, Sprague-Dawley, rat, HQ (Huang-Qin) group: rats, oral extract 3.54 g/kg, plasma, read-out: Cmax). The half-life in series [1] (setting [8]) was 4.33 ± 3.23 h; in series [1] (setting [11]), 2.85 ± 0.54 h; in series [1] (male, Sprague-Dawley, rat, HQ (Huang-Qin) group: rats, oral extract 3.54 g/kg, plasma, read-out: T1/2 (converted)), 1.58 ± 0.14 h. The Tmax in series [1] (setting [9]) amounted to 0.44 ± 3.87 h; in series [1] (setting [12]), 0.34 ± 0.07 h; in series [1] (male, Sprague-Dawley, rat, HQ (Huang-Qin) group: rats, oral extract 3.54 g/kg, plasma, read-out: Tmax) it was 0.31 ± 0.03 h.
As to `COc1ccc(-c2coc3cc(O[C@@H]4O[C@H](CO)[C@@H](O)[C@H](O)[C@H]4O)ccc3c2=O)cc1` [Compound 39, ononin], the AUC(0-t) is 139 ± 52.4 ng·h/mL in series [1] (setting [13]), 187 ± 129 ng·h/mL in series [1] (setting [4]), 500 ± 233 ng·h/mL in series [1] (setting [5]) and more than 300 ng·h/mL in series [1] (setting [6]). For the same compound, the results for the maximum concentration (Cmax) in series [1] (setting [14]), in series [1] (setting [7]) and in series [1] (setting [10]) were 41.2 ± 11.4 ng/mL, 34.8 ± 34.2 ng/mL and 24.1 ± 8.38 ng/mL, respectively. Further, the half-life in series [1] (setting [15]) was 1.21 ± 0.24 h; in series [1] (setting [8]) it was 5.73 ± 2.2 h; in series [1] (setting [11]), 2.44 ± 1.45 h. Also, the time to peak (Tmax) in series [1] (setting [16]) stood at 1.12 ± 0.29 h; in series [1] (setting [9]), 0.86 ± 0.15 h; in series [1] (setting [12]), 0.74 ± 0.29 h. Moreover, the “bioavailability in the GQD group compared with the Ge-Gen group” value in series [1] (rats, oral) is on record as “higher”.
As for `CC1(C)[C@@H](O)CC[C@]2(C)[C@H]3C(=O)C=C4[C@@H]5C[C@@](C)(C(=O)O)CC[C@]5(C)CC[C@@]4(C)[C@]3(C)CC[C@@H]12` [Compound 40, glycyrrhetinic acid], the peak concentration (Cmax) came out at 371.14 ± 66.69 ng/mL in series [1] (GQD group: rats, oral GQD extract 18.9 g/kg, plasma) and 359 ± 37.8 ng/mL in series [1] (male, Sprague-Dawley, rat, GC (Gan-Cao) group: rats, oral extract 2.36 g/kg, plasma, read-out: Cmax). Moreover, the AUC(0-t) in series [1] (male, Sprague-Dawley, rat, plasma, po, 2.36 g/kg, GC (Gan-Cao) group: rats, oral extract 2.36 g/kg, plasma, read-out: AUClast) worked out at 9630 ± 778 ng·h/mL; in series [1] (setting [5]), 8480 ± 1300 ng·h/mL. The half-life in series [1] (male, Sprague-Dawley, rat, GC (Gan-Cao) group: rats, oral extract 2.36 g/kg, plasma, read-out: T1/2 (converted)) was 6.87 ± 2.47 h; in series [1] (setting [8]) it was 7.96 ± 2.56 h. In series [1] (male, Sprague-Dawley, rat, GC (Gan-Cao) group: rats, oral extract 2.36 g/kg, plasma, read-out: Tmax), the time to peak (Tmax) was 13.4 ± 0.78 h.
Take `COc1ccc(C2=CC(=O)OC2Cc2ccc(O)cc2)c(OC2OC(CO)C(O)C(O)C2O)c1` [Compound 41, (4S)-puerol B 2″-O-glucopyranoside]: the AUC(0-t) in series [1] (setting [13]) stood at 67.3 ± 28.7 ng·h/mL; in series [1] (setting [4]), 18.9 ± 4.09 ng·h/mL; in series [1] (setting [5]), 37.5 ± 21.1 ng·h/mL. The Cmax in series [1] (setting [14]) was found to be 14.9 ± 9.76 ng/mL; in series [1] (setting [7]), 10.9 ± 9.4 ng/mL; in series [1] (setting [10]), 11.1 ± 4.41 ng/mL. The results for the half-life in series [1] (setting [15]), in series [1] (setting [8]) and in series [1] (setting [11]) were 9.31 ± 2.19 h, 7.98 ± 2.88 h and 6.45 ± 5.16 h, respectively. For the same compound, the Tmax in series [1] (setting [16]) was found to be 0.52 ± 1.11 h; in series [1] (setting [9]), 0.52 ± 0.26 h; in series [1] (setting [12]) it was 0.53 ± 1.2 h.
As to `CO[C@H]1/C=C/O[C@@]2(C)Oc3c(C)c(O)c4c(O)c(c(/C=N/N5CCN(C)CC5)c(O)c4c3C2=O)NC(=O)/C(C)=C\C=C\[C@H](C)[C@H](O)[C@@H](C)[C@@H](O)[C@@H](C)[C@H](OC(C)=O)[C@@H]1C` [rifampicin, reference compound], at P-glycoprotein (P-gp), the “effect on the efflux of BER” value is “increased” and the “effect on the influx of BER” value was “decreased”.

As a reminder, the Cmax is the peak of the concentration-time curve. As a reminder, the Tmax is the time from dosing to the highest level.
